Key:
[1] = test system: primary myotubes; assay: AICAR-induced respiration (oxygen consumption) in primary myotubes; type: cell-based, mouse; settings: wild-type (Jhdm2a+/+) primary myotubes, 500 μM AICAR for 16 hours
Experimental: Jhdm2a^+/+ and Jhdm2a^−/− primary myotubes were treated with 500 μM AICAR for 16 hours. Rates of oxygen consumption were normalized to cell counts. *p<0.05. The effect of Jhdm2a deficiency on energy expenditure was analyzed. Systemic energy expenditure includes basal metabolic rate, physical activity, and adaptive thermogenesis (Spiegelman, Cell 104, 531 (2001)). Metabolic studies were performed using TSE LabMaster calorimetry Module (TSE-System) in the Clinical Nutrition Research Unit at the University of North Carolina. For respiration measurements, cultured cells were resuspended in PBS. Oxygen consumption was measured using a Clarke-type electrode (Diamond General) at baseline, and after treatment with 10 μM isoproterenol (ISO) (Wu, Cell 98, 115 (1999)). For normalization of the respiration rates, an aliquot of the cells was lysed and protein concentration was measured. […] The decreased energy expenditure of the Jhdm2a KO mice was not a result of abnormal metabolic hormone secretion. […] Activation of AMPK signaling was determined by treating C2C12 myotubes with 800 μM AICAR (Sigma Aldrich) for 16 hours. […] To gain further support for the involvement of JHDM2A in AMPK-mediated mitochondrial function, the effect of Jhdm2a-deficiency on AMPK activation-mediated respiration in primary myotubes was measured.

[2] = test system: PGC-1α promoter; settings: control C2C12 cells, AICAR treatment
Experimental: Wild-type and Jhdm2a knock-down C2C12 myotubes with or without AICAR treatment were used for ChIP followed by qPCR. Antibodies against H3K9me1 and H3K9me2 were used in the ChIP assays. Results were normalized to input, and are shown as fold of enrichment relative to that in the wild-type C2C12 cells without AICAR treatment. *p<0.05.
To determine whether PGC-1α is a direct target of JHDM2A, ChIP assays were performed. Ctrl or Jhdm2a KD C2C12 myotubes with or without AICAR treatment were used for ChIP analysis with histone modification-specific antibodies and anti-JHDM2A as described previously (Okada, Nature 450, 119 (2007)).

[3] = test system: Ucp1 enhancer; assay: ChIP analysis at the Ucp1 enhancer in HIB1B cells after ISO treatment; type: cell-based; settings: control HIB1B cells
Excerpt: The Jhdm2a knock-down-induced increase in H3K9me2 level could be partially rescued by overexpression of JHDM2A coupled with ISO treatment. *P<0.05.
Results are normalized to IgG, and are shown as the fold-enrichment relative to that in the control cells without ISO. *P<0.05.
The possibility that Jhdm2a directly regulates Ucp1 expression was subsequently examined. […] The binding was site-specific as Jhdm2a was not detected within the Ucp1 coding region, see FIG. 39, amplicon B).
In addition to removing the repressive H3K9me2 mark at the Ucp1 enhancer, Jhdm2a could contribute to Ucp1 activation by affecting the recruitment of transcription factors and co-activators. To examine this possibility, the effect of the loss of Jhdm2a on the recruitment of transcription factors (PPARγ, Rxrα and Atf2) and co-activators (Pgc1α, CBP/p300 and Src1) was analyzed. […] However, the enhanced binding by PPARγ and Rxra disappeared in the Jhdm2a knock-down cells, see FIG. 41. Similar results were also observed for the co-activators, see FIG. 42. […] Collectively, the data herein indicate that Jhdm2a contributes to β-adrenergic-stimulated Ucp1 activation by maintaining a low level of H3K9me2 at the Ucp1 enhancer region, and by augmenting the recruitment of PPARγ and Rxrα and their co-activators to the Ucp1 enhancer element.

[4] = test system: HIB1B cells; assay: qRT-PCR and western blot of Jhdm2a in HIB1B cells after ISO; type: cell-based
Experimental: Given that cold-induced Ucp1 upregulation is intact in the PPARα-deficient mice (Kersten, et al., J. Clin. Invest. 103:1489 (1999)), the possibility was explored that Jhdm2a directly regulates Ucp1 expression in response to cold exposure. To ascertain that the effect of Jhdm2a on Ucp1 expression was cell-intrinsic, short-hairpin RNA (shRNA)-mediated was performed in the brown adipose cell line HIB1B using lentivirus-based shRNA. To generate a Jhdm2a knock-down HIB1B cell line, undifferentiated cells were infected with a lentiviral virus expressing a shRNA for Jhdm2a or control. The shRNA sequence for Jhdm2a was 5′-GCAGGTGTCACTAGCCTTAAT-3′ (SEQ ID NO:76). The differentiation of HIB1B cells was performed as previously described (Ross, et al., Proc. Natl. Acad. Sci. USA 89:7561 (1992)). […] Importantly, enforced overexpression of human JHDM2A in the knock-down cells partially rescued Ucp1 expression, see FIG. 36B. […] ISO-induced upregulation of Pgcla was also maintained in HIB1B knock-down cells, see FIG. 38.

SMILES	respiration (rate of oxygen consumption) [1]	H3K9me1 and H3K9me2 levels at the PGC-1α promoter [2]	H3K9me2 levels at the Jhdm2a binding site of the Ucp1 enhancer [3]	binding of PPARγ, Rxrα and Atf2 to the Ucp1 enhancer [3]	Jhdm2a messenger RNA and protein levels [4]
NC(=O)c1ncn([C@@H]2O[C@H](CO)[C@@H](O)[C@H]2O)c1N [AICAR]	increased respiration	decreased			
CC(C)NCC(O)c1ccc(O)c(O)c1 (centres unmarked) [ISO, isoproterenol]			specifically decreased	increased	upregulated

— patent US20110138488A1, “DEFICIENCY IN THE HISTONE DEMETHYLASE JHDM2A RESULTS IN IMPAIRED ENERGY EXPENDITURE AND OBESITY” (priority 2008, published 2011)
